Data published in patent US20070031493A1, “Pharmaceutical compositions” (priority 1996, published 2007).

How the values were obtained:
Type in all cases: physicochemical
[1] = Drug release from eroding paraffin matrix tablet and immediate release hard gelatin capsule, USP II apparatus; details: 20 mg drug, pH 6.8, +37° C., paddle 75 rpm, FIG. 3
Experimental: (§1) In the following Examples 1 to 3, drug release from various types of tablets was determined in pH 6.8, +37° C., by use of an USP II apparatus at a paddle stirring rate of 75 rpm. All tablet formulations were manufactured by conventional techniques and, for each example, in an identical manner except for the drug constituent.

[2] = Transport over a diffusion controlling polymeric membrane, two-compartment cell; details: pH 6.8, +37° C., steady state, FIG. 4
Experimental: The release rate was studied at different initial concentrations of the active drug. The solutions (pH 6.8) in the chambers were well stirred and thermostated at +37° C. From the cumulative amount released versus time, the release rates (amount released/time) were determined as the slopes of the linear parts of the curves obtained at steady state. No accumulation in the membrane was found of any of the drugs. The results are presented in FIG. 4 as the release rates versus the concentrations used in the experiments.

[3] = Drug release and tablet erosion, eroding polyethyleneoxide (PEO) matrix tablet, USP II apparatus; details: eroding matrix of PEO 8,000,000, 10 mg drug; pH 6.8, +37° C., paddle 75 rpm; FIG. 1
Experimental: as §1, with “constituent. […] Tablet erosion was determined by weighing after removal of the tablets from the dissolution apparatus and drying to constant weight.” for “constituent.”

[4] = Drug release from non-eroding high molecular weight xanthane matrix tablet, USP II apparatus; details: non-eroding matrix of xanthane (195 mg), 5 mg drug; pH 6.8, +37° C., paddle 75 rpm; FIG. 2
Experimental: as §1

Water solubility = experiment: Water solubility

| drug release from sustained release tablet (comparison) [1] | release rate over membrane (comparison) [2] | drug release compared with tablet erosion [3] | drug release from sustained release tablet (comparison) [3] | water solubility (Water solubility) | solubility (Water solubility; water) | SMILES | release rate over membrane versus concentration in donor chamber ([2]; different initial concentrations) | drug release from sustained release tablet (comparison) [4] |
| --- | --- | --- | --- | --- | --- | --- | --- | --- |
| slower than the release of diclofenac | much slower compared to diclofenac | almost identical | slower than the release of methylparaben | – | – | CC(C)n1c(/C=C/[C@@H](O)C[C@@H](O)CC(=O)O)c(-c2ccc(F)cc2)c2ccccc21 (relative stereo) [fluvastatin, R*,S*-(E)-(±)-7-[3-(4-fluorophenyl)-1-(1-methyl-ethyl)-1H-indol-2-yl]-3,5-dihydroxy-6-heptenoic acid] | independent of the concentration of fluvastatin in the donor compartment | slower than the release of both diclofenac and methylparaben |
| – | – | faster than the tablet erosion | – | – | – | COC(=O)c1ccc(O)cc1 [methylparaben, methyl p-hydroxybenzoate] | – | – |
| – | – | – | – | > 50 mg/mL | > 50 mg/mL | CC(C)n1c(/C=C/C(O)CC(O)CC(=O)O)c(-c2ccc(F)cc2)c2ccccc21 (stereo not drawn) [fluvastatin sodium] | – | – |
